Experimental data reported in patent publication US7029865B2, “DNA molecules encoding the melanocortin 4 receptor protein from rhesus monkey” (Merck & Co., Inc., priority 1998, dated 2006).

System: rhMC-4R
Assay: Competitive binding assay, [125I]-NDP alpha MSH, membranes from rhesus MC-4R transfected cells
Conditions: read-out: IC50 rhMC-4R
Method: Reactions were incubated for 1 hour without shaking and then filtered through 96-well filter plates (Packard corp.). Filters were washed three times with TNE buffer (50 mM Tris pH 7.4, 5 mM EDTA, 150 mM NaCl), dried and counted using Microscint-20 in a Topcount scintillation counter (Packard).
Membranes prepared from rhesus MC-4R transfected cells were evaluated alongside membranes prepared from human MC-4R, MC-4R, and MC-5R expressing cells.

Sequence of rhMC-4R (as listed by the source): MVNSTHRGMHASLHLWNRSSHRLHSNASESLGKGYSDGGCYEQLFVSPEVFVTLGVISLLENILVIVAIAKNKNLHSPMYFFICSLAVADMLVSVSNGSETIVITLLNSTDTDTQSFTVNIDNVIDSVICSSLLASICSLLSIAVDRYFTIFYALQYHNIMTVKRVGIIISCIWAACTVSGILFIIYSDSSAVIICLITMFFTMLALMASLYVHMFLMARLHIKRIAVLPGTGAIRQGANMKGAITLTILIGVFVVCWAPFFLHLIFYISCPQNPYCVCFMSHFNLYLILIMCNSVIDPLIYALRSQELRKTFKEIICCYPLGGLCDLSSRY

NDP-alpha-MSH
IC50: 1.3 nM
